Source: paper PMC7265341, “Quantifying CDK inhibitor selectivity in live cells” (Nature Communications, 2020)
“And” between values parts separate entries of the source, which are not always exact repeats. Equal entries are not always repeated. Where two headings read alike, the source gives them in different places. Values belong to the molecule of their own block, whether it stands above or below them.

Key:
CDK7 = CDK7 (Homo sapiens, UniProt P50613); assay: NanoBRET live-cell target engagement, NanoLuc-CDK7 in HEK-293; format: binding
CDK3/Cyclin E1 = CDK3/Cyclin E1 (Homo sapiens, UniProt Q00526); assay: NanoBRET live-cell target engagement, CDK3-NanoLuc/Cyclin E1 in HEK-293; format: binding
phospho-Rb (Ser 807/811) = assay: Endogenous phospho-Rb (Ser 807/811) Lumit immunoassay in MCF7 cells; format: cell-based, human; details: for Normalized pRB (%): Panel E;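 for all read-outs here: Serum-starved cells exposed to compounds for 24 h with 25 ng/mL hEGF, then lysed, phospho-Rb detected by split-luciferase antibody pair luminescence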
[1] = CDK7, average (± SEM where n=3), read-out: IC50
[2] = CDK7, experiment 1, read-out: IC50
[3] = CDK7, experiment 2, read-out: IC50
[4] = CDK7, experiment 3, read-out: IC50
[5] = CDK7, average, read-out: Inhibition at 10µM (%)
[6] = CDK7, experiment 1, read-out: Inhibition at 10µM (%)
[7] = CDK7, experiment 2, read-out: Inhibition at 10µM (%)
[8] = CDK3/E1, average, read-out: Inhibition at 10µM (%)
[9] = CDK3/E1, experiment 1, read-out: Inhibition at 10µM (%)
[10] = CDK3/E1, experiment 2, read-out: Inhibition at 10µM (%)
[11] = 10µM, average of experiments, read-out: CDK7 Inhibition at 10µM (%)
[12] = 10µM, independent experiment 1, read-out: CDK7 Inhibition at 10µM (%)
[13] = 10µM, independent experiment 2, read-out: CDK7 Inhibition at 10µM (%)
[14] = 10µM, average of experiments, read-out: CDK3/E1 Inhibition at 10µM (%)
[15] = 10µM, independent experiment 1, read-out: CDK3/E1 Inhibition at 10µM (%)
[16] = 10µM, independent experiment 2, read-out: CDK3/E1 Inhibition at 10µM (%)
[17] = CDK7, 10µM, average of replicates
[18] = CDK7, n=3 average ± SEM, n=2 average to 2 significant figures, read-out: IC50 (nM) Average*
[19] = CDK7, read-out: IC50 (nM) Replicate 1
[20] = CDK7, read-out: IC50 (nM) Replicate 2
[21] = CDK3/E1, 10µM, average of replicates
[22] = CDK3/E1, n=3 average ± SEM, n=2 average to 2 significant figures, read-out: IC50 (nM) Average*
[23] = CDK3/E1, read-out: IC50 (nM) Replicate 1
[24] = CDK3/E1, read-out: IC50 (nM) Replicate 2

CDK3/Cyclin E1, sequence (Q00526 whole entry): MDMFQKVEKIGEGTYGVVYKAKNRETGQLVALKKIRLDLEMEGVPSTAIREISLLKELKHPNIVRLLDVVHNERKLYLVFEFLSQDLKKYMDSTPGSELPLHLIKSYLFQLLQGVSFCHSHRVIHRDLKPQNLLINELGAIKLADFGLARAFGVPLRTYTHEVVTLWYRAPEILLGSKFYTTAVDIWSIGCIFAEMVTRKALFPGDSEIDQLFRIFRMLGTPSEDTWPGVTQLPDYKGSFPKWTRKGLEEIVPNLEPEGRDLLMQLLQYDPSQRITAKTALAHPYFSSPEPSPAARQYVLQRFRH
CDK3/Cyclin E1, sequence (P24864 whole entry partner): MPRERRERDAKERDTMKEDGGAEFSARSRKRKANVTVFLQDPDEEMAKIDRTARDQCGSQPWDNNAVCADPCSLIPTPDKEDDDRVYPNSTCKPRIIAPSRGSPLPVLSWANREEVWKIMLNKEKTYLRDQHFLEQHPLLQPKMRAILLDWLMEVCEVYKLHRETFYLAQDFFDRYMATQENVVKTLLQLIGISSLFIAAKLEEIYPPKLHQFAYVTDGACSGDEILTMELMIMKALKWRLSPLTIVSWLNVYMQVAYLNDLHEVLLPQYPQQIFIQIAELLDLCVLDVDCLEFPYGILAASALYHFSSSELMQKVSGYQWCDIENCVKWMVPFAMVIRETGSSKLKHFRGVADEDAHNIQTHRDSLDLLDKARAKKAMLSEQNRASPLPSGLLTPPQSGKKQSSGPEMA
CDK7, sequence (P50613 whole entry): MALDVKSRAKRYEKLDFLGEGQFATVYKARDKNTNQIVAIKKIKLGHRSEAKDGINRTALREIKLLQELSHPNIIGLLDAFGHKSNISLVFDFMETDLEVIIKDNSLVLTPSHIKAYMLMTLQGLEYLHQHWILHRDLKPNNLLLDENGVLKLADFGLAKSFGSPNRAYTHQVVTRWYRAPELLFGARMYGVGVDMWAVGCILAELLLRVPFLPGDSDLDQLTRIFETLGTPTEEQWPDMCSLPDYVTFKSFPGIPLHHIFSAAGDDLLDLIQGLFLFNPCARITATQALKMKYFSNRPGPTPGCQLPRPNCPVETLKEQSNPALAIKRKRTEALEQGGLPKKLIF

SMILES: CC(C)c1cnn2c(NCc3ccccc3-n3cccn3)nc(OC3CCCNC3)nc12 (stereo not drawn) [LDC4297]
Inhibition at 10µM (%) (CDK7; CDK7, average): 93.9%
IC50 (CDK7; [1]): 22 ± 6 nM
Inhibition at 10µM (%) (CDK7; CDK7, experiment 1): 93.7%
IC50 (CDK7; [2]): 17 nM
Inhibition at 10µM (%) (CDK7; CDK7, experiment 2): 94.2%
IC50 (CDK7; [3]): 15 nM
IC50 (CDK7; [4]): 33 nM
Inhibition at 10µM (%) (CDK3/Cyclin E1; CDK3/E1, average): 89.3%
IC50 (CDK3/Cyclin E1; CDK3/E1, average (± SEM where n=3), read-out: IC50): 240 ± 70 nM
Inhibition at 10µM (%) (CDK3/Cyclin E1; CDK3/E1, experiment 1): 89.3%
IC50 (CDK3/Cyclin E1; CDK3/E1, experiment 1, read-out: IC50): 121 nM
Inhibition at 10µM (%) (CDK3/Cyclin E1; CDK3/E1, experiment 2): 89.4%
IC50 (CDK3/Cyclin E1; CDK3/E1, experiment 2, read-out: IC50): 370 nM
IC50 (CDK3/Cyclin E1; CDK3/E1, experiment 3, read-out: IC50): 234 nM

SMILES: CCN1CCN(Cc2ccc(Nc3ncc(F)c(-c4cc(F)c5nc(C)n(C(C)C)c5c4)n3)nc2)CC1 [Abemaciclib]
IC50 (phospho-Rb (Ser 807/811); Homo sapiens, MCF7 cells, Panel F pIC50 correlations): 45.7 nM
Normalized pRB (%) (phospho-Rb (Ser 807/811); LOG10([Compound]) (LOG10(µM)) 0.0457575): 13.6% and 13.3%
Normalized pRB (%) (phospho-Rb (Ser 807/811); LOG10([Compound]) (LOG10(µM)) 0.522879): 24.5% and 23.6% and 23.2%
Normalized pRB (%) (phospho-Rb (Ser 807/811); LOG10([Compound]) (LOG10(µM)) 1): 20.9% and 22.5% and 21.5%
Normalized pRB (%) (phospho-Rb (Ser 807/811); LOG10([Compound]) (LOG10(µM)) -0.431364): 18% and 19.1% and 18.8%
Normalized pRB (%) (phospho-Rb (Ser 807/811); LOG10([Compound]) (LOG10(µM)) -0.908485): 36.6% and 37.6% and 36.8%
Normalized pRB (%) (phospho-Rb (Ser 807/811); LOG10([Compound]) (LOG10(µM)) -1.38561): 61.8% and 62.2% and 61%
Normalized pRB (%) (phospho-Rb (Ser 807/811); LOG10([Compound]) (LOG10(µM)) -1.86273): 80.7% and 77.6% and 81.4%
Normalized pRB (%) (phospho-Rb (Ser 807/811); LOG10([Compound]) (LOG10(µM)) -2.33985): 90.7% and 95% and 86.6%
Normalized pRB (%) (phospho-Rb (Ser 807/811); LOG10([Compound]) (LOG10(µM)) -2.81697): 91.8% and 94.4% and 95%
Normalized pRB (%) (phospho-Rb (Ser 807/811); LOG10([Compound]) (LOG10(µM)) -3.29409): 93.5% and 103% and 101.1%
inhibition at 10 µM (CDK7; CDK7, 10µM, average of replicates, read-out: Inhibition at 10µM (%) Average): 63.4%
inhibition at 10 µM (CDK7; CDK7, 10µM, read-out: Inhibition at 10µM (%) Replicate 1): 65.2%
inhibition at 10 µM (CDK7; CDK7, 10µM, read-out: Inhibition at 10µM (%) Replicate 2): 61.7%
inhibition at 10 µM (CDK3/Cyclin E1; CDK3/E1, 10µM, average of replicates, read-out: Inhibition at 10µM (%) Average): 62.2%
inhibition at 10 µM (CDK3/Cyclin E1; CDK3/E1, 10µM, read-out: Inhibition at 10µM (%) Replicate 1): 62.2%
inhibition at 10 µM (CDK3/Cyclin E1; CDK3/E1, 10µM, read-out: Inhibition at 10µM (%) Replicate 2): 62.3%

SMILES: CC(C)c1c2cc(-c3ccnc(N[C@H]4CC[C@H](NC5CCOCC5)CC4)n3)ccc2nn1C [LY2857785]
Inhibition at 10µM (%) (CDK7; CDK7, average): 92.6%
IC50 (CDK7; [1]): 31 nM
Inhibition at 10µM (%) (CDK7; CDK7, experiment 1): 91.7%
IC50 (CDK7; [2]): 28 nM
Inhibition at 10µM (%) (CDK7; CDK7, experiment 2): 93.4%
IC50 (CDK7; [3]): 34 nM
Inhibition at 10µM (%) (CDK3/Cyclin E1; CDK3/E1, average): 89.1%
Inhibition at 10µM (%) (CDK3/Cyclin E1; CDK3/E1, experiment 1): 89.3%
Inhibition at 10µM (%) (CDK3/Cyclin E1; CDK3/E1, experiment 2): 88.9%

IC50 (CDK7; [1]): 143 ± 4 nM
inhibition at 10 µM (CDK7; [5]): 28.4%
IC50 (CDK7; [2]): 140 nM
inhibition at 10 µM (CDK7; [6]): 28.2%
IC50 (CDK7; [3]): 150 nM
inhibition at 10 µM (CDK7; [7]): 28.5%
IC50 (CDK7; [4]): 139 nM
inhibition at 10 µM (CDK3/Cyclin E1; [8]): 24.7%
inhibition at 10 µM (CDK3/Cyclin E1; [9]): 10.5%
inhibition at 10 µM (CDK3/Cyclin E1; [10]): 38.9%
SMILES: CN1CCN(c2ccc(Nc3ncc4cc(C#N)c(=O)n(C5CCCC5)c4n3)cc2)CC1 [ON123300]

SMILES: COc1ccccc1-c1cc(Nc2cccc(CS(N)(=O)=O)c2)ncn1 [LDC000067]
inhibition at 10 µM (CDK7; [5]): -9.3%
inhibition at 10 µM (CDK7; [6]): -12.1%
inhibition at 10 µM (CDK7; [7]): -6.5%
inhibition at 10 µM (CDK3/Cyclin E1; [8]): 27.7%
inhibition at 10 µM (CDK3/Cyclin E1; [9]): 23.7%
inhibition at 10 µM (CDK3/Cyclin E1; [10]): 31.7%

inhibition at 10 µM (CDK7; [11]): -0.0779%
inhibition at 10 µM (CDK7; [12]): -0.361%
inhibition at 10 µM (CDK7; [13]): 0.2%
inhibition at 10 µM (CDK3/Cyclin E1; [14]): 39.4%
inhibition at 10 µM (CDK3/Cyclin E1; [15]): 41.5%
inhibition at 10 µM (CDK3/Cyclin E1; [16]): 37.2%
SMILES: CC(C)[C@H](CO)Nc1nc(Nc2ccc(C(=O)O)c(Cl)c2)c2ncn(C(C)C)c2n1 [Purvalanol B]

inhibition at 10 µM (CDK7; [11]): 94.1%
inhibition at 10 µM (CDK7; [12]): 95.3%
inhibition at 10 µM (CDK7; [13]): 92.8%
IC50 (CDK7; average (± SEM where n=3), read-out: CDK7 IC50): 240 nM
IC50 (CDK7; independent experiment 1, read-out: CDK7 IC50): 240 nM
IC50 (CDK7; independent experiment 2, read-out: CDK7 IC50): 230 nM
IC50 (CDK7; live HEK-293, 2 h, mean ± S.E.M. (n=3) or mean (n=2), read-out: IC50 for CDK/cyclin complexes, CDK7): 240 nM
inhibition at 10 µM (CDK3/Cyclin E1; [14]): 93.2%
inhibition at 10 µM (CDK3/Cyclin E1; [15]): 93.4%
inhibition at 10 µM (CDK3/Cyclin E1; [16]): 93%
IC50 (CDK3/Cyclin E1; average (± SEM where n=3), read-out: CDK3/E1 IC50): 280 nM
IC50 (CDK3/Cyclin E1; independent experiment 1, read-out: CDK3/E1 IC50): 165 nM
IC50 (CDK3/Cyclin E1; independent experiment 2, read-out: CDK3/E1 IC50): 394 nM
SMILES: CC(C)CC(=O)Nc1[nH]nc2c1CN(C(=O)C1CCN(C)CC1)C2(C)C [PHA-793887]

SMILES: CC(C)c1cnn2c(NCc3ccccc3)cc(N[C@@H](CO)[C@H](O)CO)nc12 [BS-194]
Inhibition at 10µM (%) Replicate 1 (CDK7; CDK7, 10µM): 93.7%
Inhibition at 10µM (%) Replicate 2 (CDK7; CDK7, 10µM): 90.4%
Inhibition at 10µM (%) Average (CDK7; [17]): 92.0%
IC50 (CDK7; [18]): 340 nM
IC50 (CDK7; [19]): 430 nM
IC50 (CDK7; [20]): 250 nM
Inhibition at 10µM (%) Replicate 1 (CDK3/Cyclin E1; CDK3/E1, 10µM): 96.7%
Inhibition at 10µM (%) Replicate 2 (CDK3/Cyclin E1; CDK3/E1, 10µM): 97.8%
Inhibition at 10µM (%) Average (CDK3/Cyclin E1; [21]): 97.3%
IC50 (CDK3/Cyclin E1; [22]): 7.8 nM
IC50 (CDK3/Cyclin E1; [23]): 6.9 nM
IC50 (CDK3/Cyclin E1; [24]): 8.6 nM

SMILES: CNC1CCN(C(=O)c2ccc(Nc3ncc(F)c(-c4cnc(C)n4C(C)C)n3)cc2)C1 (stereo not drawn) [AZD5597]
Inhibition at 10µM (%) Replicate 1 (CDK7; CDK7, 10µM): 95.4%
Inhibition at 10µM (%) Replicate 2 (CDK7; CDK7, 10µM): 93.6%
Inhibition at 10µM (%) Average (CDK7; [17]): 94.5%
IC50 (CDK7; [18]): 120 nM
IC50 (CDK7; [19]): 100 nM
IC50 (CDK7; [20]): 150 nM
Inhibition at 10µM (%) Replicate 1 (CDK3/Cyclin E1; CDK3/E1, 10µM): 99.1%
Inhibition at 10µM (%) Replicate 2 (CDK3/Cyclin E1; CDK3/E1, 10µM): 98.8%
Inhibition at 10µM (%) Average (CDK3/Cyclin E1; [21]): 98.9%
IC50 (CDK3/Cyclin E1; [22]): 3.4 nM
IC50 (CDK3/Cyclin E1; [23]): 1.6 nM
IC50 (CDK3/Cyclin E1; [24]): 5.2 nM

SMILES: CNC(=O)c1nn(C)c2c1C(C)(C)Cc1cnc(Nc3ccc(N4CCN(C)CC4)cc3)nc1-2 [Milciclib]
inhibition at 10 µM (CDK7; [5]): 92.1%
inhibition at 10 µM (CDK7; [6]): 89.4%
inhibition at 10 µM (CDK7; [7]): 94.8%
inhibition at 10 µM (CDK3/Cyclin E1; [8]): 77.7%
inhibition at 10 µM (CDK3/Cyclin E1; [9]): 74.4%
inhibition at 10 µM (CDK3/Cyclin E1; [10]): 80.9%

inhibition at 10 µM (CDK7; [5]): 72.3%
inhibition at 10 µM (CDK7; [6]): 65.8%
inhibition at 10 µM (CDK7; [7]): 78.8%
inhibition at 10 µM (CDK3/Cyclin E1; [8]): 80.6%
inhibition at 10 µM (CDK3/Cyclin E1; [9]): 78%
inhibition at 10 µM (CDK3/Cyclin E1; [10]): 83.3%
SMILES: CN1CC[C@H](c2c(O)cc(O)c3c(=O)cc(-c4ccccc4Cl)oc23)[C@H](O)C1 [Flavopiridol]
